From patent US20180100153A1, “Method and kit for use in inhiiting tumor progression, predicting or determining tumor progression state in VGF expressing cancers” (Truebio LLC, priority 2016, published 2018)

How the values were obtained:
[1] = system: HCC827GR/tet-on control cells; assay: Xenograft assay with doxycycline; format: in vivo, nude mice; settings: daily oral Dox for 30 days
Method: FIG. 13 illustrates VGF as a therapeutic target. (FIG. 13A) Q-PCR (left) analysis for VGF expression and clonogenic assay (right) in HCC827GR/tet-on control cells. […] (FIG. 13B) Xenograft assay for assessing the effect of doxycycline treatment on tumor growth. HCC827GR/tet-on control cells were injected subcutaneously into nude mice. 32 days after cancer cell injection, mice were treated with or without daily oral doxycycline (Dox) for another 30 days. Tumor volume was monitored over time as indicated (left). Tumor weight was measured after harvest (upper right). The representative photographs illustrate tumor growth 30 days after Dox or normal saline treatment (lower right). ns means no significant (n=6 mice/group). (FIG. 13C) Q-PCR (left) analysis for VGF expression and clonogenic assay (right) in HCC827GR/tet-on shVGF cells in which shVGF was induced by doxycycline (Dox). […] HCC827GR/tet-on-shVGF cells were injected subcutaneously into nude mice. 32 days after cancer cell injection, mice were treated with or without daily oral doxycycline (Dox) for another 30 days. Tumor volume was monitored over time as indicated (left). Tumor weight was measured after harvest (upper right). The representative photographs illustrate tumor growth 30 days after Dox or normal saline treatment (lower right). Scale bar, 1 mm. Error bars indicate the SEM (n=6 mice/group; *P<0.05). […]

[2] = system: lung adenocarcinoma harboring EGFR mutations (exon 19 deletions or the L858R mutation); settings: References 5 to 10; cited from earlier work
[3] = system: HCC827GR cells; assay: Western blot of apoptosis markers (activated caspase 3, cleaved PARP); format: cell-based; settings: gefitinib 1 μM, 24 hr
[4] = system: HCC827GR cells infected with shVGF; assay: alamarBlue cell viability assay after VGF knockdown; format: cell-based; settings: HCC827GR cells with VGF-silencing, gefitinib 3 days, FIG. 3F
From the text: FIG. 3 illustrates expression of VGF in EGFR-TKI resistant lung cancer cells. […] Tubulin served as a loading control. (FIG. 3B) Q-PCR analysis (left) for measuring the expression of VGF in HCC827GR-2, an independently selected EGFR-TKI resistant HCC827 pool, versus and HCC827 cells. Tubulin served as a loading control. Gene expression analysis (right) for VGF expression in HCC827 and EGFR-TKI resistant clones (ER3 and T15-2) from the database of GSE38310. (FIG. 3C) Gene expression analysis for VGF expression in different subtypes of lung cancer cell lines from the database of […] (CCLE). SCLC: small cell lung cancer; ADC: adenocarcinoma; SCC: squamous cell carcinoma. […] (FIG. 3E) Q-PCR analysis (left) and western blotting (right) for measuring VGF expression in HCC827GR cells infected with lentiviral vectors encoding shVGF (shVGF) or scrambled control (SC). shVGF#1 and shVGF#2 target different regions in VGF mRNA.
To identify genes involved in EGFR-TKI resistance and EMT in lung adenocarcinoma, a gene expression profiling assay followed by Q-PCR analysis were performed in HCC827GR versus HCC827 cells (FIG. 3A, upper). […] . […] Consistently, the expression of VGF was elevated in the independently isolated TKI resistance HCC827 cells (FIGS. 3B and 10). […] The inventors further examined VGF levels in cell lines derived from different subtypes of lung cancer. […] .

[5] = system: HCC827GR cells; assay: IC50 analysis via alamarBlue assay, HCC827GR versus HCC827; format: cell-based
[6] = system: HEK293T cells; assay: Clonogenic analysis of VGF mutants under low serum stress; format: cell-based; settings: transfected HEK293T cells, DMEM with 1% FBS, 10 days
From the text: FIG. 18 illustrates effect of VGF mutants on low serum stress. (FIG. 18A) Schematic representation of VGF deletion mutations (FIG. 18B) A table summarizing clonogenic analysis of HEK293T cells transfected with expression vector encoding empty control (Ctrl), full-length VGF cDNA (VGF), or truncated VGF cDNA as described in the FIG. 18A under the growth of DMEM supplement with 1% FBS for 10 days.
The effect of VGF mutants on low serum stress was examined (FIG. 18). Clonogenic analysis of HEK293T cells transfected with expression vector encoding empty control, full-length VGF cDNA, or truncated VGF cDNA under the growth of DMEM supplement with 1% FBS for 10 days were summarized in FIG. 18B.

## C[C@H]1c2cccc(O)c2C(=O)C2=C(O)[C@]3(O)C(=O)C(C(N)=O)=C(O)[C@@H](N(C)C)[C@@H]3[C@@H](O)[C@@H]21 [Dox, doxycycline]
[1]
  tumor growth: no effect

## C#Cc1cccc(Nc2ncnc3cc(OCCOC)c(OCCOC)cc23)c1 [erlotinib]
[2]
  therapeutic response: profound therapeutic responses

## COc1cc2ncnc(Nc3ccc(F)c(Cl)c3)c2cc1OCCCN1CCOCC1 [gefitinib]
[3]
  expression of activated caspase 3 and PARP (apoptosis): resistant to gefitinib-induced apoptosis
[4]
  cell viability (sensitivity to gefitinib): sensitive

## C=CC(=O)Nc1cc(Nc2nccc(-c3cn(C)c4ccccc34)n2)c(OC)cc1N(C)CCN(C)C [AZD9291]
[5]
  IC50 analysis (EGFR-TKI resistance): resistance

B1: VGF 1-615: full length VGF, expressed from full-length VGF cDNA vector (protein, UniProt O15240 1-615, looked up)
chain: MKALRLSASALFCLLLINGLGAAPPGRPEAQPPPLSSEHKEPVAGDAVPGPKDGSAPEVRGARNSEPQDEGELFQGVDPRALAAVLLQALDRPASPPAPSGSQQGPEEEAAEALLTETVRSQTHSLPAPESPEPAAPPRPQTPENGPEASDPSEELEALASLLQELRDFSPSSAKRQQETAAAETETRTHTLTRVNLESPGPERVWRASWGEFQARVPERAPLPPPAPSQFQARMPDSGPLPETHKFGEGVSSPKTHLGEALAPLSKAYQGVAAPFPKARRPESALLGGSEAGERLLQQGLAQVEAGRRQAEATRQAAAQEERLADLASDLLLQYLLQGGARQRGLGGRGLQEAAEERESAREEEEAEQERRGGEERVGEEDEEAAEAEAEAEEAERARQNALLFAEEEDGEAGAEDKRSQEETPGHRRKEAEGTEEGGEEEDDEEMDPQTIDSLIELSTKLHLPADDVVSIIEEVEEKRKRKKNAPPEPVPPPRAAPAPTHVRSPQPPPPAPAPARDELPDWNEVLPPWDREEDEVYPPGPYHPFPNYIRPRTLQPPSALRRRHYHHALPPSRHYPGREAQARRAQEEAEAEERRLQEQEELENYIEHVLLRRP
modifications: full-length
notes: full length VGF, expressed from full-length VGF cDNA vector
[6]
  cell survival in clonogenic analysis: survived
